Results as given in patent US20250197384A1, “AZOLE COMPOUND AND ANTIFUNGAL AGENT” (NIHON NOHYAKU CO., LTD., priority 2022, published 2025).
In brackets after ≈: the same amount, converted by molar mass.

Experiments:
Format in all cases: cell-based
[1] = test system: Trichophyton mentagrophytes TIMM2789; test: In vitro anti-tinea fungus activity test (T. mentagrophytes); conditions: Table 22, 27° C. for 3 days, alamar Blue, minimum concentration showing 80% or more inhibition
Protocol: (§1) Trichophyton rubrum NBRC6203 and Trichophyton mentagrophytes TIMM2789 were used as the strains. The test fungi were cultured on a Sabouraud dextrose agar slant medium at 27° C. for 10-13 days, and then suspended in sterilized saline. The number of cells in this suspension was counted using a hemocytometer, and the same suspension was adjusted to a cell concentration of 2×10^6 conidia/mL, and this was used as an inoculum. Each compound was dissolved in dimethyl sulfoxide to a predetermined concentration, and diluted 50-fold with 0.165 M MOPS buffered RPMI 1640 liquid medium, and each diluted solution was dispensed into a 96-well microplate by each 100 μL. The inoculum was diluted 50-fold with 0.165 M MOPS buffered RPMI 1640 liquid medium containing 20% alamar Blue™, and the diluted solution was inoculated into the 96-well microplate containing the compound by each 100 μL (final inoculum amount 2×10^4 conidia/mL). After static culture at 27° C. for 3 days (Trichophyton mentagrophytes) or for 5 days (Trichophyton rubrum), the degree of color development of the alamar Blue™ was measured using a microplate reader (O.D. 570-595 nm), and the minimum concentration showing 80% or more inhibition was defined as the minimum inhibitory concentration (MIC).

[2] = test system: Candida albicans NBRC1270; test: In vitro anti-Candida activity test; conditions: Table 22, 35° C. for 24 hr, alamar Blue, minimum concentration showing 80% or more inhibition
Protocol: Candida albicans NBRC1270 was used as the strain. The test fungi were cultured on a Sabouraud dextrose agar slant medium at 35° C. for 24 hr, and then suspended in sterilized saline. The number of cells in this suspension was counted using a hemocytometer, and the same suspension was adjusted to a cell concentration of 1.5×10^5 cells/mL, and this was used as an inoculum. Each compound was dissolved in dimethyl sulfoxide to a predetermined concentration, and diluted 50-fold with 0.165 M MOPS buffered RPMI 1640 liquid medium, and each diluted solution was dispensed into a 96-well microplate by each 100 μL. The inoculum was diluted 50-fold with 0.165 M MOPS buffered RPMI 1640 liquid medium containing 20% alamar Blue™, and the diluted solution was inoculated into the 96-well microplate containing the compound by each 100 μL (final inoculum amount 1.5×10^3 cells/mL). After static culture at 35° C. for 24 hr, the degree of color development of the alamar Blue™ was measured using a microplate reader (O.D. 570-595 nm), and the minimum concentration showing 80% or more inhibition was defined as the minimum inhibitory concentration (MIC).

[3] = test system: Trichophyton rubrum NBRC6203; test: In vitro anti-tinea fungus activity test (T. rubrum); conditions: Table 22, 27° C. for 5 days, alamar Blue, minimum concentration showing 80% or more inhibition
Protocol: as §1

[4] = test system: Aspergillus fumigatus TIMM0063; test: In vitro anti-Aspergillus activity test; conditions: Table 22, 35° C. for 48 hr, alamar Blue, minimum concentration showing 80% or more inhibition
Protocol: Aspergillus fumigatus TIMM0063 was used as the strain. The test fungi were cultured on a Potato dextrose agar slant medium at 35° C. for 4 days, and then sterilized saline containing 0.1% (v/v) Tween 80 was added to release the conidia. This conidial suspension was filtered through sterile gauze, and the number of conidia was counted using a hemocytometer. The same solution was adjusted to a conidial concentration of 1×10^6 conidia/mL, and this was used as an inoculum. Each compound was dissolved in dimethyl sulfoxide to a predetermined concentration, and diluted 50-fold with 0.165 M MOPS buffered RPMI 1640 liquid medium, and each diluted solution was dispensed into a 96-well microplate by each 100 μL. The inoculum was diluted 50-fold with 0.165 M MOPS buffered RPMI 1640 liquid medium containing 20% alamar Blue™, and the diluted solution was inoculated into the 96-well microplate containing the compound by each 100 μL (final inoculum amount 1.0×10^4 conidia/mL). After static culture at 35° C. for 48 hr, the degree of color development of the alamar Blue™ was measured using a microplate reader (O.D. 570-595 nm), and the minimum concentration showing 80% or more inhibition was defined as the minimum inhibitory concentration (MIC).

Structure (SMILES)	minimum inhibitory concentration against various fungi (MIC) T. mentagrophytes [1] [µg/mL]	minimum inhibitory concentration against various fungi (MIC) C. albicans [2] [ng/mL]	minimum inhibitory concentration against various fungi (MIC) T. rubrum [3] [ng/mL]	minimum inhibitory concentration against various fungi (MIC) A. fumigatus [4] [ng/mL]
CCO/N=C/c1cnc(C2CS/C(=C(/C#N)n3cncn3)S2)c(Cl)c1 (stereo not drawn) [compound 21]	0.01 (≈ 25.5 nM)	5 (≈ 12.7 nM)	≤1	5 (≈ 12.7 nM)
N#C/C(=C1/SCC(c2ncc(/C=N/OCc3ccccc3)cc2Cl)S1)n1cncn1 (stereo not drawn) [compound 23]	0.01 (≈ 22 nM)	0.6 (≈ 1.32 nM)	≤1	5 (≈ 11 nM)
CO/N=C/c1cnc(C2CS/C(=C(/C#N)n3ccnc3)S2)c(Cl)c1 (stereo not drawn) [compound 24]	≤0.001	2.5 (≈ 6.62 nM)	≤1	2.5 (≈ 6.62 nM)
